{"source": "paper PMC12441834", "about": "“Highly Potent and Subtype-Selective Sperm-Specific Potassium Channel SLO3 Inhibitors Display High Tissue Exposure in the Murine Female Reproductive Tract” (ACS Pharmacology & Translational Science, 2025)", "key": {"Glucocorticoid": {"molecular_target": "Glucocorticoid (Homo sapiens, UniProt P04150)", "sequence (P04150 whole entry)": "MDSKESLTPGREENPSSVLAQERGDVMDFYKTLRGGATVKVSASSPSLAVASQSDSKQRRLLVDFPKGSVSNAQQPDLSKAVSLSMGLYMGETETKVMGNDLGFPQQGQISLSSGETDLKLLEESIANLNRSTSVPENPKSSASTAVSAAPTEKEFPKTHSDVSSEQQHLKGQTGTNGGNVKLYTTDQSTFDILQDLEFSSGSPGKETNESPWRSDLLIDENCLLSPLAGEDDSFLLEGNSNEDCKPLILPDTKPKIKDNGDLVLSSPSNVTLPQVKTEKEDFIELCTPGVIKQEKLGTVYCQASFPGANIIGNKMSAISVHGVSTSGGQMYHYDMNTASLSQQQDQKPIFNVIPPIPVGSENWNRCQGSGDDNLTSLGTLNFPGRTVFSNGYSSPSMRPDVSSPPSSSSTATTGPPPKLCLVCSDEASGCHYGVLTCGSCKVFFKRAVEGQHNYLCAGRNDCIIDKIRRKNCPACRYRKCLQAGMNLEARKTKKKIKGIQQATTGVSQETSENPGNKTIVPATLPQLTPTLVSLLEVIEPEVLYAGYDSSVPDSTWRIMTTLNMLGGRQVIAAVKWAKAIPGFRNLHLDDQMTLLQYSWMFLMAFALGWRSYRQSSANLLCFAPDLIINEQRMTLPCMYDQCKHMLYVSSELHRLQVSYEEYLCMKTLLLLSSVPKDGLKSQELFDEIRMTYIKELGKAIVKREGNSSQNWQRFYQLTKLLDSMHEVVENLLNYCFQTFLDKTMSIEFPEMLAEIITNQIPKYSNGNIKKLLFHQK", "experiment": "LeadProfilingScreen radioligand binding"}, "[1]": {"molecular_target": "Platelet Activating Factor (PAF) (Homo sapiens, UniProt P25105)", "sequence (P25105 whole entry)": "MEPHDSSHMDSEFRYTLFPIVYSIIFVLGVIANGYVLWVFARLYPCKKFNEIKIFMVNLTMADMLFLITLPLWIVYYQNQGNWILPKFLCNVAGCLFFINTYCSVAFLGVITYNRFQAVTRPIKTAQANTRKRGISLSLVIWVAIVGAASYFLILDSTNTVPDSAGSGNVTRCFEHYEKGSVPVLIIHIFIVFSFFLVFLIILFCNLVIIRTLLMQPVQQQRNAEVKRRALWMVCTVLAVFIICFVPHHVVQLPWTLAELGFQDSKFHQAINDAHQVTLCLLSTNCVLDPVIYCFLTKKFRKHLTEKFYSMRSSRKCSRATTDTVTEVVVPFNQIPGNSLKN", "experiment": "LeadProfilingScreen radioligand binding"}, "Muscarinic M1": {"molecular_target": "Muscarinic M1 (Homo sapiens, UniProt P11229)", "sequence (P11229 whole entry)": "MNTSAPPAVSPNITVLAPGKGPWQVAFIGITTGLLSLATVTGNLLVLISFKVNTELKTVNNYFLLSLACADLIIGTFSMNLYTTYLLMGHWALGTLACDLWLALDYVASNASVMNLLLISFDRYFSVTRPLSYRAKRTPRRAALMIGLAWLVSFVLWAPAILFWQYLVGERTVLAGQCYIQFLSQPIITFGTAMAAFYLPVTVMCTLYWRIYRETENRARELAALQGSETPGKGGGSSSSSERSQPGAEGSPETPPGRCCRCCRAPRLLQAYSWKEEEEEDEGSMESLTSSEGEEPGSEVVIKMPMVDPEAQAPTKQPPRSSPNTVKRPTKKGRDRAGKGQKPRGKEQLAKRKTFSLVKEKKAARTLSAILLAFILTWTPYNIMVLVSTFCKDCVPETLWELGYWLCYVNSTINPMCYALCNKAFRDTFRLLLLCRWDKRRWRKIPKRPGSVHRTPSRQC", "experiment": "LeadProfilingScreen radioligand binding"}, "Imidazoline I2, Central": {"test_system": "Imidazoline I2, Central", "experiment": "LeadProfilingScreen radioligand binding", "set-up": "species or system rat"}, "[2]": {"experiment": "Distribution ratio female reproductive organs versus plasma after IV dosing", "assay_type": "in vivo", "details": "C57Bl/6, mouse, female mice, 1 mg/kg IV; for Kp at 0.25 h: reproductive organs / plasma", "procedure": "(§1) Samples were analyzed via electrospray ionization (ESI) LC-MS/MS on an AB Sciex 4500 (Foster City, CA) triple-quadrupole instrument that was coupled with an Agilent 1290 Infinity Binary Pump and multisampler (Santa Clara, CA) and concentrations (ng/mL or ng/g) were determined using a matrix-matched 10-point standard curve and then converted to nM concentrations. Quantitation of compounds was performed via AB Sciex Multiquant software using the raw analyte:IS peak area ratios. The typical detection range was 0.5 ng/mL to ≥5000 ng/mL utilizing a quadratic equation regression with 1/x² weighting. Correction for dilution of all tissue samples was performed postquantitation. The corrections for dilution in the extraction buffer employed correction factors specific to each tissue weight.\nIn-life phase–Compounds were formulated in PEG400:DMSO (4:1, v/v) at a concentration of 1 mg/mL and administered as a single 1 mg/kg dose (1 mL/kg) to female C57Bl/6 mice (n = 2–4; 30 g body weight) via intravenous (i.v.) injection. Blood samples were collected serially from a surgically implanted carotid artery catheter in each animal over multiple postadministration time points (0.25, 0.5, 1, 3, 6, and 24 h) into chilled, K2EDTA anticoagulant-fortified tubes and immediately placed on wet ice. The blood samples were stored at −80 °C until analysis by LC-MS/MS.\nAt the same time points, female reproductive organs were obtained by rapid dissection, rinsed with PBS, pooled by lots of 2 and immediately frozen in individual tissue collection boxes (dry ice). All tissues and blood samples were stored at −80 °C until analysis by LC-MS/MS."}, "Androgen (Testosterone)": {"molecular_target": "Androgen (Testosterone) (Homo sapiens, UniProt P10275)", "sequence (P10275 whole entry)": "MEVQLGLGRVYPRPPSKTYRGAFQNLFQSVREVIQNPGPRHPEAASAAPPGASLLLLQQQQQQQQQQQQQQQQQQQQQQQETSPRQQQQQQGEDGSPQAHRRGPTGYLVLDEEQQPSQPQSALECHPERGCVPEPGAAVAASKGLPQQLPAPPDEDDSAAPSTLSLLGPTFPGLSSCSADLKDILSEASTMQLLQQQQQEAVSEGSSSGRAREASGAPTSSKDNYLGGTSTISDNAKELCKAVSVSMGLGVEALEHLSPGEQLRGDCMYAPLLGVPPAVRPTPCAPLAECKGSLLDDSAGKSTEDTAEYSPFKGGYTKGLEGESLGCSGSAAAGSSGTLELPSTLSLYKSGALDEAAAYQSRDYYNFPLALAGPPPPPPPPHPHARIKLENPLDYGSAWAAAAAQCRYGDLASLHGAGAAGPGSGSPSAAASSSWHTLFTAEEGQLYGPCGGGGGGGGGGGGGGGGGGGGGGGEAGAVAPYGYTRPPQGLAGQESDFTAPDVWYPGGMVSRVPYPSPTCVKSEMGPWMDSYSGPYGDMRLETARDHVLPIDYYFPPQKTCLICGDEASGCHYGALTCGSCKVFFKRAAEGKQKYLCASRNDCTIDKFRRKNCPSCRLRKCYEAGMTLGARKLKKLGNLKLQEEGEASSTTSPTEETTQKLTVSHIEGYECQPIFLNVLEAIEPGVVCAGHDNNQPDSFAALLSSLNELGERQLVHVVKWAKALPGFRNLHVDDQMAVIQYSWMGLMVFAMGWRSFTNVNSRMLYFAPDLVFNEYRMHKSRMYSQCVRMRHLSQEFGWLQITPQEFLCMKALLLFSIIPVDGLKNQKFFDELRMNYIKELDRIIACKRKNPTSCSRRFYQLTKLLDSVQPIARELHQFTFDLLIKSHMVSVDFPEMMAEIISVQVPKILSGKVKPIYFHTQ", "experiment": "LeadProfilingScreen radioligand binding"}, "Neuropeptide Y Y1": {"molecular_target": "Neuropeptide Y Y1 (Homo sapiens, UniProt P25929)", "sequence (P25929 whole entry)": "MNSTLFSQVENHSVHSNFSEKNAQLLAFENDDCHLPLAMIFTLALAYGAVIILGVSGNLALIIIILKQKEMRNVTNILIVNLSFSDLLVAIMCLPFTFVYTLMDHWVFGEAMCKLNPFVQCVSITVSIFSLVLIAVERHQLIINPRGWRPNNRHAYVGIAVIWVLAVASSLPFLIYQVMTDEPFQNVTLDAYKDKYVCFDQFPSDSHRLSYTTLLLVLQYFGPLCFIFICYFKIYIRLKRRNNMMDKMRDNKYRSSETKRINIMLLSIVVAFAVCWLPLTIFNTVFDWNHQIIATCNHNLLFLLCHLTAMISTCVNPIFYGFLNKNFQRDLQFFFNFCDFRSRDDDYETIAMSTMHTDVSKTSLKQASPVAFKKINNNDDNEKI", "experiment": "LeadProfilingScreen radioligand binding"}, "Cannabinoid CB1": {"molecular_target": "Cannabinoid CB1 (Homo sapiens, UniProt P21554)", "sequence (P21554 whole entry)": "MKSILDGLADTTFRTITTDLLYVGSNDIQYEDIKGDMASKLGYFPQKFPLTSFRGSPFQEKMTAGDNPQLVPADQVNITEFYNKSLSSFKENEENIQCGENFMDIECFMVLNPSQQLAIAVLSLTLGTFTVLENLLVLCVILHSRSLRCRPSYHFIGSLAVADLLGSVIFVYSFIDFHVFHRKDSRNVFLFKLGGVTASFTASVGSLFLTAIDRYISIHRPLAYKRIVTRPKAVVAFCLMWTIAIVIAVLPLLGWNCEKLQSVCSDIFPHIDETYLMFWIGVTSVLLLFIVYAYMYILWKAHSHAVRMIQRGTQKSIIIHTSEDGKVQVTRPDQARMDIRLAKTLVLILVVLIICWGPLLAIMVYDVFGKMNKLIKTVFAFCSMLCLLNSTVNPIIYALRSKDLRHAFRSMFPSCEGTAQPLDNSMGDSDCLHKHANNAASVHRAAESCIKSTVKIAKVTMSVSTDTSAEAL", "experiment": "LeadProfilingScreen radioligand binding"}, "Muscarinic M2": {"molecular_target": "Muscarinic M2 (Homo sapiens, UniProt P08172)", "sequence (P08172 whole entry)": "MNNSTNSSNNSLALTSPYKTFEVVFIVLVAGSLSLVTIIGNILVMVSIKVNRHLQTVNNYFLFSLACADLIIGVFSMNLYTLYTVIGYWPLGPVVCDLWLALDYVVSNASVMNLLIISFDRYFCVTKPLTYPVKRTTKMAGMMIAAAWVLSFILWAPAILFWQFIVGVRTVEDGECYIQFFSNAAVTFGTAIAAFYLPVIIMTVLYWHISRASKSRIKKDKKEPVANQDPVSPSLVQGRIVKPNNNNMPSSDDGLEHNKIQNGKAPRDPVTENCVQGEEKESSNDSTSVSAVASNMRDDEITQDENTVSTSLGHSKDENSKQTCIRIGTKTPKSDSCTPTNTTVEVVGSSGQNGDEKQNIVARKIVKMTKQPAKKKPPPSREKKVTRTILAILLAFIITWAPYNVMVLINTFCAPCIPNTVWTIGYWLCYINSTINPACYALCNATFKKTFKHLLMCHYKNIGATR", "experiment": "LeadProfilingScreen radioligand binding"}, "[3]": {"molecular_target": "Serotonin (5-Hydroxytryptamine) 5-HT3 (Homo sapiens, UniProt P46098)", "sequence (P46098 24-478)": "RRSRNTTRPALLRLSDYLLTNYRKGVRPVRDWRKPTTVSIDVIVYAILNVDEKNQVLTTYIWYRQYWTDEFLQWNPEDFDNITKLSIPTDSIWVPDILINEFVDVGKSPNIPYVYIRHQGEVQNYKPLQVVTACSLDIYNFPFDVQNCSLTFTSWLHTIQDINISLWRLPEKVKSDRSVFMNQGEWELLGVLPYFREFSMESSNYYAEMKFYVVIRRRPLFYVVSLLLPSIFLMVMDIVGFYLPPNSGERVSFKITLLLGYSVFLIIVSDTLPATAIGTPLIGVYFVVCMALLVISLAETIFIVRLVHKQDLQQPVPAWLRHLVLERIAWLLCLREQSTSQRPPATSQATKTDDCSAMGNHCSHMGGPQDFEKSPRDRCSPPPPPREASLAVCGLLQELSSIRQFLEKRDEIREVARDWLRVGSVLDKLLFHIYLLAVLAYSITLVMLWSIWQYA", "experiment": "LeadProfilingScreen radioligand binding"}, "[4]": {"experiment": "Drug concentrations in compartments of the murine FRT after IP dosing", "assay_type": "in vivo, mouse", "details": "10 mg/kg IP; for concentration at 0.25 hr / concentration at 0.5 hr / concentration at 1 hr / concentration at 3 hr / concentration at 6 hr / concentration at 24 hr: mouse", "procedure": "as §1\nIn subsequent experiments, mice were dosed by injection into the peritoneum (ip) as a single 10 mg/kg dose, the reproductive organs were dissected, and the ovaries, the oviducts, and the uterus were pooled from 2 animals and frozen. Tissues were subjected to mechanical homogenization (Mini-BeadBeater, BioSpec Products, Inc., Bartlesville, OK) in the presence of stainless-steel beads (1.0 mm) and extraction buffer (isopropanol:water, 7:3, v/v; 1 mL per sample for whole reproductive organs and uterus and 250 μL for ovaries and oviducts). Homogenized tissue samples were then centrifuged (4000 rcf, 5 min, ambient temperature), and 5 μL of the supernatant was used for quantification of the analyte. The plasma standard curve and QCs were used for compound quantitation in reproductive tissues."}, "[5]": {"experiment": "Discrete IV PK in female mice", "assay_type": "in vivo, mouse", "details": "5 mg/kg IV", "procedure": "In-life phase–Compounds were formulated in 12% ethanol, 48% PEG400, and 40% DMSO (v/v/v) at a concentration of 1 mg/mL and administered as a single 0.2 mg/kg IV dose (1 mL/kg) to male, Sprague–Dawley rats (n = 1; 342 g body weight) via injection into a surgically implanted jugular vein catheter. Blood samples were collected serially from a surgically implanted carotid artery catheter in each animal over multiple postadministration time points (0.033, 0.117, 0.25, 0.5, 1, 2, 4, 7, and 24 h) into chilled, K2EDTA anticoagulant-fortified tubes and immediately placed on wet ice. The blood samples were then centrifuged (1700 rcf, 5 min, 4 °C) in order to obtain plasma samples, which were stored at −80 °C until analysis by LC-MS/MS. VU6032735 was also dosed IV in C57Bl6 mice at 5 mg/kg IV to determine mouse PK. Formulation and experimental design were identical to those used for rats except that whole blood was used for analysis.\nas §1"}, "hSLO2.2": {"molecular_target": "T1, hSLO2.2 (Homo sapiens, UniProt Q5JUK3)", "T1 construct": "expressed in transfected cells; host or cells: HEK", "experiment": "SLO2.2 inhibition in HEK cells", "assay_type": "cell-based"}, "[6]": {"details": "female reproductive organs (pooled), pooled organs, read-out: Reproductive Organs concentration"}, "[7]": {"details": "plasma, read-out: Plasma concentration"}, "[8]": {"details": "ovary, female mice, read-out: Ovary concentration"}, "[9]": {"details": "oviduct, female mice, read-out: Oviduct concentration"}, "[10]": {"details": "plasma, female mice, read-out: Plasma concentration"}, "[11]": {"details": "uterus, female mice, read-out: Uterus concentration"}}, "note": "Read-outs that look alike come from different tables or passages of the source.", "data": [{"smiles": "Cc1cc(Cl)cc2sc(O[C@H]3CCN(C(=O)CCCS(=O)(=O)c4cccc(Br)c4)C[C@H]3F)nc12", "note": "[VU6047606]", "values": [{"measurement": "inhibition at 10 µM", "setting": "Glucocorticoid", "value": 18, "unit": "%"}, {"measurement": "inhibition at 10 µM", "setting": "[1]", "value": 8, "unit": "%"}, {"measurement": "inhibition at 10 µM", "setting": "Muscarinic M1", "value": 6, "unit": "%"}, {"measurement": "% inhibition at 10 μM", "setting": "Imidazoline I2, Central", "value": 9, "unit": "%"}, {"measurement": "concentration at 0.25 h", "setting": "[2]; [6]", "value": 56.6, "unit": "ng/mL"}, {"measurement": "concentration at 0.25 h", "setting": "[2]; [7]", "value": 121, "unit": "ng/mL"}, {"measurement": "Kp at 0.25 h", "setting": "[2]", "value": 0.47}, {"measurement": "inhibition at 10 µM", "setting": "Androgen (Testosterone)", "value": 8, "unit": "%"}, {"measurement": "inhibition at 10 µM", "setting": "Neuropeptide Y Y1", "value": -16, "unit": "%"}, {"measurement": "inhibition at 10 µM", "setting": "Cannabinoid CB1", "value": 27, "unit": "%"}, {"measurement": "inhibition at 10 µM", "setting": "Muscarinic M2", "value": -6, "unit": "%"}, {"measurement": "inhibition at 10 µM", "setting": "[3]", "value": -17, "unit": "%"}]}, {"smiles": "O=C(c1ccc(OCc2ccc(OC(F)(F)F)cc2)cc1)N1CCN(c2ccc(C(F)(F)F)cn2)CC1", "note": "[VU6032735]", "values": [{"measurement": "oviduct total drug concentration relative to mSLO3 IC50", "setting": "[4]; 24 h, versus IC50 in mouse sperm and in mSLO3-γ2 HEK293 cells", "value": "4.4- to 5.5 fold"}, {"measurement": "oviduct concentration relative to ovary", "setting": "[4]; female mice", "value": 10, "unit": "fold"}, {"measurement": "oviduct concentration relative to uterus", "setting": "[4]; female mice", "value": 5, "unit": "fold"}, {"measurement": "total concentrations in the different compartments of the reproductive tract", "setting": "[4]; female mice, for 24 h after dosing", "value": "above 1 μM"}, {"measurement": "concentration at 0.25 hr", "setting": "[4]; [8]", "value": 7.52, "unit": "µM"}, {"measurement": "concentration at 0.5 hr", "setting": "[4]; [8]", "value": 7.69, "unit": "µM"}, {"measurement": "concentration at 1 hr", "setting": "[4]; [8]", "value": 7.45, "unit": "µM"}, {"measurement": "concentration at 3 hr", "setting": "[4]; [8]", "value": 2.63, "unit": "µM"}, {"measurement": "concentration at 6 hr", "setting": "[4]; [8]", "value": 3.54, "unit": "µM"}, {"measurement": "concentration at 24 hr", "setting": "[4]; [8]", "value": 1.97, "unit": "µM"}, {"measurement": "concentration at 0.25 hr", "setting": "[4]; [9]", "value": 73, "unit": "µM"}, {"measurement": "concentration at 0.5 hr", "setting": "[4]; [9]", "value": 94.8, "unit": "µM"}, {"measurement": "concentration at 1 hr", "setting": "[4]; [9]", "value": 95.2, "unit": "µM"}, {"measurement": "concentration at 3 hr", "setting": "[4]; [9]", "value": 93.6, "unit": "µM"}, {"measurement": "concentration at 6 hr", "setting": "[4]; [9]", "value": 35.3, "unit": "µM"}, {"measurement": "concentration at 24 hr", "setting": "[4]; [9]", "value": 4.02, "unit": "µM"}, {"measurement": "concentration at 0.25 hr", "setting": "[4]; [10]", "value": 1.15, "unit": "µM"}, {"measurement": "concentration at 0.5 hr", "setting": "[4]; [10]", "value": 0.45, "unit": "µM"}, {"measurement": "concentration at 1 hr", "setting": "[4]; [10]", "value": 0.62, "unit": "µM"}, {"measurement": "concentration at 3 hr", "setting": "[4]; [10]", "value": 0.98, "unit": "µM"}, {"measurement": "concentration at 6 hr", "setting": "[4]; [10]", "value": 2.14, "unit": "µM"}, {"measurement": "concentration at 24 hr", "setting": "[4]; [10]", "value": 0.61, "unit": "µM"}, {"measurement": "concentration at 0.25 hr", "setting": "[4]; [11]", "value": 12.4, "unit": "µM"}, {"measurement": "concentration at 0.5 hr", "setting": "[4]; [11]", "value": 11.3, "unit": "µM"}, {"measurement": "concentration at 1 hr", "setting": "[4]; [11]", "value": 21.8, "unit": "µM"}, {"measurement": "concentration at 3 hr", "setting": "[4]; [11]", "value": 4.35, "unit": "µM"}, {"measurement": "concentration at 6 hr", "setting": "[4]; [11]", "value": 6.66, "unit": "µM"}, {"measurement": "concentration at 24 hr", "setting": "[4]; [11]", "value": 3.11, "unit": "µM"}, {"measurement": "inhibition at 10 µM", "setting": "Glucocorticoid", "value": 10, "unit": "%"}, {"measurement": "inhibition at 10 µM", "setting": "[1]", "value": -2, "unit": "%"}, {"measurement": "inhibition at 10 µM", "setting": "Muscarinic M1", "value": -8, "unit": "%"}, {"measurement": "% inhibition at 10 μM", "setting": "Imidazoline I2, Central", "value": -2, "unit": "%"}, {"measurement": "concentration at 0.25 h", "setting": "[2]; [6]", "value": 1070, "unit": "ng/mL"}, {"measurement": "concentration at 0.25 h", "setting": "[2]; [7]", "value": 85.3, "unit": "ng/mL"}, {"measurement": "Kp at 0.25 h", "setting": "[2]", "value": 12.7}, {"measurement": "inhibition at 10 µM", "setting": "Androgen (Testosterone)", "value": 1, "unit": "%"}, {"measurement": "inhibition at 10 µM", "setting": "Neuropeptide Y Y1", "value": -1, "unit": "%"}, {"measurement": "inhibition at 10 µM", "setting": "Cannabinoid CB1", "value": 32, "unit": "%"}, {"measurement": "inhibition at 10 µM", "setting": "Muscarinic M2", "value": -10, "unit": "%"}, {"measurement": "CLobs", "setting": "[5]", "value": 8.6, "unit": "mL/min/kg"}, {"measurement": "AUC", "setting": "[5]; C57Bl6, mouse, whole blood", "value": 9840, "unit": "ng·h/mL"}, {"measurement": "MRT", "setting": "[5]; C57Bl6, mouse, whole blood", "value": 45.9, "unit": "h"}, {"measurement": "half-life", "setting": "[5]; C57Bl6, mouse, whole blood, read-out: Elim. t1/2 (converted)", "value": 33.7, "unit": "h"}, {"measurement": "Vd", "setting": "[5]; C57Bl6, mouse, whole blood, read-out: Vss", "value": 23.6, "unit": "L/kg"}, {"measurement": "inhibition at 10 µM", "setting": "[3]", "value": -11, "unit": "%"}]}, {"smiles": "Cc1cc(Cl)cc2sc(OC3CCN(C(=O)CCCS(=O)(=O)c4cccc(Br)c4)CC3F)nc12", "note": "(stereo not shown) [VU6045330]", "values": [{"measurement": "HEK hSLO2.2 % inhib. 10 μM", "setting": "hSLO2.2", "value": "No inhibition"}]}]}
